According to patent publication US9994518B2, “Alpha-7 nicotinic acetylcholine receptor modulators and uses thereof” (MERCK SHARP & DOHME CORP., priority 2014, dated 2018):
pEC50: −log10 of the molar value.

Target: T1, α7 nAChR (rat α7/CHO cells) (Rattus norvegicus, UniProt Q05941)
T1 construct: expressed in transfected cells; host or cells: CHO cells (α7/CHO)
Assay: Evaluation of modulators of α7 nAChRs using the IonFlux HT automated patch clamp system (potentiation of EC20 ACh-evoked currents)
Type: cell-based
Conditions: percent potentiation of ACh (EC20, approx. 60 μM) response in α7/CHO cells; 6-point dose response 0.03-10 μM; whole cell patch clamp
Description: Evaluation of Modulators of α7 nAChRs Using the IonFlux^HT Automated Patch Clamp System
Acetylcholine was freshly prepared for each plate run and used at an EC20 concentration (approximately 60 μM for rat α7/CHO) to induce α7 nAChR currents on the IonFlux^HT. To prepare the ACh solution for a single plate, 6 μl of the 100 mM ACh stock was diluted into 10 ml of 0.3% DMSO/external solution
Test compounds were prepared for a 6-point dose response from 0.03-10 μM. Working stocks were prepared from serial dilutions of 10 mM DMSO stock solutions to give a final DMSO concentration of 0.3%. 80 μl of the final concentration of each compound was added to the appropriate wells in an IonFlux^HT assay plate.
2×T175 flasks of α7/CHO cells (˜60-70% confluent) were washed twice with PBS and trypsinized (2 ml) for 3.5 minutes at 37° C./5% CO2. Cells were collected in F-12K complete media, counted and the number required for the assay was calculated, for example, 2×10^6 cells in a final volume of 670 μl of external solution were required to load one zone (one quarter) of an IonFlux^HT assay plate. The correct number of cells was pelleted by centrifuge, the supernatant was discarded and the cell pellet was resuspend in external solution at the required concentration so that cells were added in a volume of 80 μl per well to the IonFlux^HT assay plate.
Calculation of the Effect of Compounds on ACh Mediated Currents in α7 nAChRs:
The effect of test compounds on EC20 ACh-evoked currents was calculated by the formula: […]
The rinse protocol was the initial step in preparation of the IonFlux^HT plate. 80 μl of MilliQ water was added to every well (except Out wells) and the IonFlux^HT assay plate was run through the water rinse protocol on the machine. At the end of the run, the water was discarded from the wells. This action was repeated twice.
Briefly, to prepare the plate for the assay aliquots of cells, compounds and internal and external solutions were added to wells of the prepared IonFlux^HT plate (80 μl/well) (solutions made to manufacturer's specifications). Automated whole cell patch-clamp recordings were made using the standard IonFlux^HT single application protocol. Vacuum was held at 6 psi/hg throughout the experiment and membrane potential was held at −80 mV for 35 sec and then at −60 mV during data acquisition. Two ACh (EC20) pulses were applied at the beginning of the assay, 90 seconds apart, to provide an ACh baseline response then cells were perfused with modulators for 89 sec before ACh (EC20) was applied for 1 s. The calculation of percent potentiation of the acetylcholine response for each well was performed by the data analysis software supplied with the IonFlux^HT.
The following compounds were tested in accordance with the above-procedure for activity and the EC50 values determined are reported: […]

T1 sequence (Q05941 23-502): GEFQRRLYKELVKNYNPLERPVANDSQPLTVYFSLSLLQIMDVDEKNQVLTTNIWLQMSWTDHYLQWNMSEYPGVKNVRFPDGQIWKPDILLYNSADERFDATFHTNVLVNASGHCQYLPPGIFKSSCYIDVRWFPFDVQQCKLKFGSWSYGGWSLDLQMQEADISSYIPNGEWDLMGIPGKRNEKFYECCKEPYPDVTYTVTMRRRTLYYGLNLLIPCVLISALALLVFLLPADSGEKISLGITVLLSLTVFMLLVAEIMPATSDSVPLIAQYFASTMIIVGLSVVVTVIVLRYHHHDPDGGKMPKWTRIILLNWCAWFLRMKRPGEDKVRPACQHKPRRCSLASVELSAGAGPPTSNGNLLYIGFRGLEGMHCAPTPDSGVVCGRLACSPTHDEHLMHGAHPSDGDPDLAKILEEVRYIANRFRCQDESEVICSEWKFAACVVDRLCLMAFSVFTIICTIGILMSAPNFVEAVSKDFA

Row | SMILES | pEC50
1 | COc1ccc(Cl)cc1OC[C@H]1[C@H](c2ccc(NS(C)(=O)=O)cc2)C1(C)C (single isomer, unassigned) [Exp. 5] | 6.71
2 | COc1ccc(OC[C@H]2[C@H](c3ccc(NS(C)(=O)=O)cc3)C2(C)C)cn1 (single isomer, unassigned) [Exp. 6] | 6.22
3 | Cc1cc(F)ccc1OC[C@H]1[C@H](c2ccc(NS(C)(=O)=O)cc2)C1(C)C (single isomer, unassigned) [Exp. 7] | 5.98
4 | Cc1cc(F)ccc1OC[C@H]1[C@H](c2ccc(NS(N)(=O)=O)cc2)C1(C)C (single isomer, unassigned) [Exp. 8] | 6.29
5 | Cc1ccc(F)cc1OC[C@H]1[C@H](c2ccc(NS(N)(=O)=O)cc2)C1(C)C (single isomer, unassigned) [Exp. 9] | 5.76
6 | CC1(C)[C@@H](COc2ccc(F)cc2C(F)(F)F)[C@@H]1c1ccc(S(N)(=O)=O)cc1 (single isomer, unassigned) [Exp. 10] | 6.37
7 | COc1ccc(Cl)cc1OC[C@H]1[C@H](c2ccc(S(N)(=O)=O)cc2)C1(C)C (single isomer, unassigned) [Exp. 11] | 5.44
8 | COc1ccc(Cl)cc1OC[C@@H]1[C@@H](c2ccc(S(N)(=O)=O)cc2)C1(C)C (single isomer, unassigned) [Exp. 12] | 5.87
9 | Cc1ccc(SC[C@H]2[C@H](c3ccc(S(N)(=O)=O)cc3)C2(C)C)cc1 (single isomer, unassigned) [Exp. 13] | 7.15
10 | COc1ccc(Cl)cc1SC[C@@H]1[C@@H](c2ccc(S(N)(=O)=O)cc2)C1(C)C (single isomer, unassigned) [Exp. 14] | 6.34
11 | Cc1ccc(SC[C@@H]2[C@@H](c3ccc(S(N)(=O)=O)cc3)C2(C)C)cc1 (single isomer, unassigned) [Exp. 15] | 7.12
12 | COc1ccc(Cl)cc1SC[C@H]1[C@H](c2ccc(S(N)(=O)=O)cc2)C1(C)C (single isomer, unassigned) [Exp. 16] | 6.90
13 | COc1ccc(OC[C@H]2[C@H](c3ccc(NS(N)(=O)=O)cc3)C2(C)C)cn1 (single isomer, unassigned) [Exp. 17] | 5.36
14 | Cc1ccc(OC[C@H]2[C@H](c3ccc(NS(N)(=O)=O)cc3)C2(C)C)cn1 (single isomer, unassigned) [Exp. 18] | 5.64
15 | Cc1ncccc1OC[C@H]1[C@H](c2ccc(NS(C)(=O)=O)cc2)C1(C)C (single isomer, unassigned) [Exp. 19] | 6.46
16 | Cc1ncccc1OC[C@H]1[C@H](c2ccc(NS(N)(=O)=O)cc2)C1(C)C (single isomer, unassigned) [Exp. 20] | 5.48
17 | COc1ccc(OC[C@@H]2[C@@H](c3ccc(S(N)(=O)=O)cc3)C2(C)C)c(OC)n1 (single isomer, unassigned) [Exp. 21] | 5.41
18 | CC1(C)[C@H](COc2cc(F)ccc2OC(F)F)[C@H]1c1ccc(S(N)(=O)=O)cc1 (single isomer, unassigned) [Exp. 22] | 6.13
19 | COc1cc(Cl)ccc1OC[C@H]1[C@H](c2ccc(NS(N)(=O)=O)cc2)C1(C)C (single isomer, unassigned) [Exp. 23] | 6.26
20 | COc1cc(F)ccc1OC[C@H]1[C@H](c2ccc(NS(N)(=O)=O)cc2)C1(C)C (single isomer, unassigned) [Exp. 24] | 6.04
21 | CC1(C)[C@@H](COc2cccnc2)[C@@H]1c1ccc(S(N)(=O)=O)cc1 (single isomer, unassigned) [Exp. 25] | 5.38
22 | COc1ccc(OC[C@H]2[C@H](c3ccc(S(N)(=O)=O)cc3)C2(C)C)c(OC)n1 (single isomer, unassigned) [Exp. 26] | 6.22
23 | Cc1ccc(OC[C@@H]2[C@@H](c3ccc(S(N)(=O)=O)cc3)C2(C)C)cn1 (single isomer, unassigned) [Exp. 27] | 5.40
24 | CC1(C)[C@H](COc2ccc(F)cc2C#N)[C@H]1c1ccc(S(N)(=O)=O)cc1 (single isomer, unassigned) [Exp. 28] | 5.51
25 | COc1cc(F)ccc1OC[C@@H]1[C@@H](c2ccc(S(N)(=O)=O)cc2)C1(C)C (single isomer, unassigned) [Exp. 29] | 5.90
26 | COc1cc(F)ccc1OC[C@H]1[C@H](c2ccc(S(N)(=O)=O)cc2)C1(C)C (single isomer, unassigned) [Exp. 30] | 5.60

Row | SMILES | pEC50
27 | Cc1cc(F)ccc1OC[C@H]1[C@H](c2ccc(S(N)(=O)=O)cc2)C1(C)C (single isomer, unassigned) [Exp. 31] | 6.70
28 | CC1(C)[C@@H](COc2ccc(F)cc2C#N)[C@@H]1c1ccc(S(N)(=O)=O)cc1 (single isomer, unassigned) [Exp. 32] | 6.09
29 | Cc1ccc(OC[C@H]2[C@H](c3ccc(S(N)(=O)=O)cc3)C2(C)C)cn1 (single isomer, unassigned) [Exp. 33] | 6.26
30 | Cc1ncccc1OC[C@H]1[C@H](c2ccc(S(N)(=O)=O)cc2)C1(C)C (single isomer, unassigned) [Exp. 34] | 5.79
31 | Cc1cc(F)ccc1OC[C@@H]1[C@@H](c2ccc(S(N)(=O)=O)cc2)C1(C)C (single isomer, unassigned) [Exp. 35] | 6.40
32 | COc1ccc(F)cc1OC[C@H]1[C@H](c2ccc(S(N)(=O)=O)cc2)C1(C)C (single isomer, unassigned) [Exp. 36] | 6.79
33 | N#Cc1cc(F)ccc1OC[C@@H]1C[C@H]1c1ccc(S(N)(=O)=O)cc1 (single isomer, unassigned) [Exp. 37] | 5.22
34 | NS(=O)(=O)c1ccc([C@@H]2C[C@H]2COc2ccc(F)cc2C(F)(F)F)cc1 (single isomer, unassigned) [Exp. 38] | 5.94
35 | COc1ccc(OC[C@@H]2C[C@H]2c2ccc(S(N)(=O)=O)cc2)c(OC)n1 (single isomer, unassigned) [Exp. 39] | 5.27
36 | COc1ccc(Cl)cc1OC[C@@H]1C[C@H]1c1ccc(S(N)(=O)=O)cc1 (single isomer, unassigned) [Exp. 40] | 5.97
37 | COc1cc(F)ccc1OC[C@@H]1C[C@H]1c1ccc(S(N)(=O)=O)cc1 (single isomer, unassigned) [Exp. 41] | 5.59
38 | CC1(C)[C@H](COc2ccccc2OC(F)F)[C@H]1c1ccc(S(N)(=O)=O)cc1 (single isomer, unassigned) [Exp. 42] | 6.20
39 | COc1ccc(F)cc1OC[C@@H]1[C@@H](c2ccc(S(N)(=O)=O)cc2)C1(C)C (single isomer, unassigned) [Exp. 43] | 5.81
40 | COc1cc(F)ccc1OC[C@H]1C[C@@H]1c1ccc(S(N)(=O)=O)cc1 (single isomer, unassigned) [Exp. 44] | 5.53
41 | N#Cc1cc(F)ccc1OC[C@H]1C[C@@H]1c1ccc(S(N)(=O)=O)cc1 (single isomer, unassigned) [Exp. 45] | 5.60
42 | NS(=O)(=O)c1ccc([C@H]2C[C@@H]2COc2ccc(F)cc2C(F)(F)F)cc1 (single isomer, unassigned) [Exp. 46] | 6.15
43 | COc1ccc(Cl)cc1OC[C@H]1C[C@@H]1c1ccc(S(N)(=O)=O)cc1 (single isomer, unassigned) [Exp. 47] | 5.43
44 | COc1ccccc1CC[C@@H]1[C@@H](c2ccc(S(N)(=O)=O)cc2)C1(C)C (single isomer, unassigned) [Exp. 48] | 6.21
45 | COc1ccc(Cl)cc1CC[C@@H]1[C@@H](c2ccc(S(N)(=O)=O)cc2)C12CCCC2 (single isomer, unassigned) [Exp. 49] | 7.19
46 | COc1ccc(Cl)cc1CC[C@H]1[C@H](c2ccc(S(N)(=O)=O)cc2)C12CCCC2 (single isomer, unassigned) [Exp. 50] | 6.72
47 | COc1ccc(Cl)cc1CC[C@H]1C[C@@H]1c1ccc(S(N)(=O)=O)cc1 (single isomer, unassigned) [Exp. 51] | 6.20
48 | COc1ccc(Cl)cc1CC[C@H]1[C@H](c2ccc(S(N)(=O)=O)cc2)C1(C)C (single isomer, unassigned) [Exp. 52] | 7.27
49 | COc1ccc(Cl)cc1OC[C@@H]1C[C@@H]1c1ccc(S(N)(=O)=O)cc1 (single isomer, unassigned) [Exp. 53] | 5.66
50 | COc1ccc(Cl)cc1CC[C@@H]1[C@@H](c2ccc(S(N)(=O)=O)cc2)C1(C)C (single isomer, unassigned) [Exp. 54] | 6.91
51 | CC1(C)[C@H](COc2ccc(Cl)cn2)[C@H]1c1ccc(S(N)(=O)=O)cc1 (single isomer, unassigned) [Exp. 55] | 5.83
